Article PMC10428205, “Cytotoxicity of Ruthenium(II) Arene Complexes Containing Functionalized Ferrocenyl β-Diketonate Ligands” (Organometallics, 2023)
Read-outs that look alike come from different tables or passages of the source.

Experiments:
MIA PaCa-2 = assay: 24 and 48 h chemosensitivity (MTT, with recovery period); assay type: cell-based, human
Description: LogP = Log ( [C]final ) Eqn1
96 h Chemosensitivity Studies
In vitro chemosensitivity tests were performed at both the University of Huddersfield and the Institute of Cancer Therapeutics, Bradford, in a sterile Class II Biological Safety Cabinet fitted with a HEPA filtered laminar airflow.
Cellular assays were conducted against human pancreatic carcinoma (MIA PaCa-2), human colorectal carcinoma p53-wildtype (HCT116 p53+/+), and human non-cancerous epithelial retinal cells (ARPE-19). The ARPE-19 cells were obtained from the American Type Culture Collection and provided by the University of Huddersfield. All cell lines were routinely maintained as monolayer cultures in appropriate complete medium and maintained in either T-25 or T-75 flasks at 37 °C and 5% CO2. MIA PaCa-2 and ARPE-19 cells were cultured in high glucose DMEM-F12 medium containing 10% foetal calf serum, and HCT116 p53+/+ was cultured in RPMI 1640 supplemented with 10% foetal calf serum. All medium was supplemented with sodium pyruvate (1 mM) and L-glutamine (2 mM), and prior to chemosensitivity studies, cell monolayers were passaged using Trypsin-EDTA and diluted to a concentration of 1 x 10^4 cells/mL. All assays were conducted using 96-well plates, in which […] of the 1 x 10^4 cells/mL cell suspension was added to each well and incubated for 24 h at 37 °C and 5% CO2. After 24 h, 100 mL of drug dilutions (fresh 100 mM stock solutions in DMSO) in media were added to the plates and then incubated for a further 96 h at 37°C and 5% CO2 (48 h + 48 h recovery period were used for the shorter exposures with MIA PaCa-2 cells only). After 96 h, 20 mL MTT (3-(4,5-dimethylthiazol-2-yl)-2,5-diphenyltetrazolium bromide, 5 mg/mL) was added to each well and incubated for 3 h at 37 °C and 5% CO2. All solutions were then removed from the 96-well plates via pipette and […] of DMSO added to each well to dissolve the purple formazan crystals. After mixing well, the absorbance of each well was measured at 540 nm using a ThermoFisher Multiskan FC spectrophotometer microplate reader. Using the blank and 100% cell controls, the % cell viability was determined [(abs. of compound containing wells – abs. media wells)/(abs. 100% cell suspension well control)] and from this the % cell death (100%- % cell viability) was calculated. On a logarithmic scale, the percentage cell death was plotted against the concentration of compound, and from this the half maximal inhibitory concentration (IC50) value was determined. Each of the experiments were performed in triplicate with mean values being stated as the IC50 ± Standard Deviation (SD).
24 and 48 h Chemosensitivity Studies
The same experimental protocol described for the 96 h MTT assay was used, and the MIA PaCa-2 cells were incubated for either 24 or 48 h, with a 72 or 48 h recovery period respectively. […]
All assays were conducted in triplicate.

Cyclic voltammetry = conditions: for E0′ (Fc*/Fc*+): 0.1 M TBAPF6 in acetonitrile, Fc/Fc+ = 0.40 V internal standard; for E0′ (Fc*/Fc*+) / EP Red: vs SCE; for EP Red: irreversible reduction; for E0’ (Fc*/Fc*+) at 0.05 V/s: scan speed 0.05 V/s; for E0’ (Fc*/Fc*+) at 0.10 V/s: scan speed 0.10 V/s; for E0’ (Fc*/Fc*+) at 0.25 V/s: scan speed 0.25 V/s
[1] = MIA PaCa-2, 24 h exposure + 72 h recovery, read-out: IC50 values ± SD, 24 h
[2] = MIA PaCa-2, 48 h exposure + 48 h recovery, read-out: IC50 values ± SD, 48 h

Row | SMILES | IC50 (MIA PaCa-2; [1]) [µM] | IC50 (MIA PaCa-2; [2]) [µM] | E0′ (Fc*/Fc*+) (Cyclic voltammetry) [V] | EP Red (Cyclic voltammetry) | E0’ (Fc*/Fc*+) at 0.05 V/s (Cyclic voltammetry) [V] | E0’ (Fc*/Fc*+) at 0.10 V/s (Cyclic voltammetry) [V] | E0’ (Fc*/Fc*+) at 0.25 V/s (Cyclic voltammetry) [V]
1 | [NH2][Pt]([NH2])([Cl])[Cl] [CDDP, cisplatin, reference compound] | > 100 | 76 ± 3 |  |  |  |  | 
2 | O=C(C=C(O)c1ccccc1)[c-]1cccc1.[Fe+2].c1cc[cH-]c1 [Complex L2] | > 100 | 68 ± 3 | 0.63 | –1.73 V | 0.63 | 0.63 | 0.63
3 | O=C(C=C(O)C(F)(F)F)[c-]1cccc1.[Fe+2].c1cc[cH-]c1 [Complex L7] | > 100 | 20 ± 1 | 0.71 | –1.42 V | 0.71 | 0.71 | 0.71
4 | CC(O)=CC(=O)[c-]1cccc1.[Fe+2].c1cc[cH-]c1 [Complex L1] | 76 ± 3 | 61 ± 1 | 0.63 | –1.98 V | 0.63 | 0.62 | 0.63
